Laboratory results taken from PMC4900628, “Critical Evaluation of P2X7 Receptor Antagonists in Selected Seizure Models” (PLoS ONE, 2016).

Test system: electroshock-induced tonic (hindlimb extension) seizures
Test: Maximal electroshock seizure threshold test (MES-T)
Format: in vivo
Settings: mice
Experimental: The stimulus train was applied via ear-clip electrodes (sinusoidal pulses 4-14 mA, 50 Hz, 0.2 s duration) by means of a constant current stimulator (rodent-shocker type 221; Hugo Sachs Elektronik, March-Hugstetten, Germany). […] Groups of 20 mice were used. Control groups, which received the corresponding vehicle, were tested together with the compound-treated groups on the same experimental day. Current intensity-effect curves were obtained on the basis of the number of animals responding with the endpoint at the corresponding current value. The results are calculated as convulsive current fifty (CC50) values (current intensity in mA, necessary to produce tonic hindlimb extension in 50% of the mice tested) including the confidence limits for 95% probability. […] Chemicals, Toronto, Canada) was slowly added. The pH was adjusted with 1N NaOH (similar amount of NaOH as HCl), all with continuous stirring. […] The drug solutions or suspensions were prepared immediately before use; all doses refer to the salts. Animals in the control group received equivalent volumes of the vehicle (in mice always 10 ml/kg, in rats 1 ml/kg [JNJ], 3 ml/kg [AFC] or 4 ml/kg [BBG, TIIAS], depending on the solubility of the different compounds). Doses and peak time effects were selected on the basis of effective doses from corresponding in vivo studies in the literature: BBG (e.g.), tanshinone IIA (e.g.) and from manufacturer's experimental data: AFC, JNJ (see, [80]). Data were analysed using SigmaPlot (vers. 12.0, Systat Software, Erkrath, Germany) and SPSS (IBM SPSS Statistics 20, […], Germany), respectively. Results are expressed as mean ± SEM. […] In the PTZ-T, the number of animals in the group with clonic seizures and the latency time were analysed using Fisher's exact probability test and the Mann-Whitney rank sum test, respectively. […] In the PTZ-kindling model, the mean seizure stage within a group was calculated in relation to the number of PTZ-injections. […] In fully kindled rats, the calculated mean seizure stage within a group after vehicle- and compound-treatment were compared using a paired t-test. […]

In the case of O=C(NCC1(N2CCN(c3ccccc3)CC2)CCOCC1)c1cccnc1Sc1ccccc1 [JNJ-47965567, N-[[4-(4-phenyl-piperazin-1-yl)tetrahydro-2H-pyran-4-yl]-methyl]-2-(phenyl-thio) nicotinamide], the “seizure threshold in MES-T at the higher doses” value (AFC 50 mg/kg, JNJ 30 mg/kg, alone) is reported as “small, but non-significant increase in seizure threshold” and the “anticonvulsant effectiveness of co-administration with carbamazepine compared to carbamazepine alone (MES-T)” value (AFC 25 and 50 mg/kg s.c. or JNJ 15 and 30 mg/kg s.c. 30 min before, with carbamazepine 7 mg/kg i.p., P < 0.01) is reported as “significantly increased the anticonvulsant effectiveness”.
